Series [1] is described as follows: Pharmacokinetics of prodrug following PO administration to rats. To be noted: for Cmax / Tmax: male, Sprague Dawley, rat, plasma, po.
Series [2] can be described thus: Pharmacokinetics of prodrug following IV administration to rats. The settings on record: for Cmax: male, Sprague Dawley, rat, plasma, iv.
A short description of series [3]: In vivo tolerability in rats (intravenous). More on the design: species or system rat. The settings on record: for dose tolerated by rats: IV. Here is the method: (§1) Male naïve Sprague-Dawley rats, 4 per dose, were used in the study. Rats were weighed, and then placed under a heat lamp for 15-20 minutes to dilate the lateral tail veins. […] Before dosing, rats were placed in Broome restrainers and the drug was introduced into one of the tail veins using a syringe and needle. […] Blood samples were collected 5 minutes post-dose via the saphenous vein. The rats were observed up to 24 hours.
as §1
The protocol to assess the IV tolerability of Compound AM-3 (lisdexamphetamine) was as described in Examples 9 and 13 above.

Series [4] deals with T1, trypsin from bovine pancreas (Bos taurus, UniProt P00760).
T1 sequence (P00760 24-246): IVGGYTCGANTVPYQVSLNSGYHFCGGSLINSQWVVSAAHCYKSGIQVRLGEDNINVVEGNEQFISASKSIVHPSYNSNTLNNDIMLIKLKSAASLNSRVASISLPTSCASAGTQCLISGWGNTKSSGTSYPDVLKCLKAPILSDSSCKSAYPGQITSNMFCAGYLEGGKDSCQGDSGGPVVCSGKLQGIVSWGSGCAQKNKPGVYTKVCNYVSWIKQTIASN
The series is described as follows: In vitro trypsin conversion of prodrugs to amphetamine and inhibition by trypsin inhibitor. The settings on record: no trypsin inhibitor; 0.761 mM prodrug HCl, 0.0228 mg/ml trypsin, pH 8, 37° C.

Series [5] has as its target T2, trypsin (Bos taurus, UniProt P00760).
T2 sequence (P00760 24-246): T1 sequence (P00760 24-246)
The series is described as above. To be noted: bovine, trypsin from bovine pancreas; for half-life at 0.761 mM: pH 8; for half-life: pH 8, with Compound 109 (trypsin inhibitor), 2 uM.

Setting [6] is: rat plasma, AM-4 PO 24 mg/kg (63 μmol/kg).

Bounds are passed on as bounds.

A word on the Cmax: it is the peak of the concentration-time curve. The Tmax is the time from dosing to the highest level. Usually half-life stands for the time in which the quantity being followed falls by half.

Turning to `CC(=O)N[C@@H](CCCNC(=N)N)C(=O)N[C@@H](C)Cc1ccccc1` (stereo in doubt) [Compound AM-1, 2-acetylamino-5-guanidino-pentanoic acid ((R)-1-methyl-2-phenyl-ethyl)-amide], in series [1] (24 mg/kg), the Cmax is 1.28 ± 0.81 ng/mL and the Tmax came to 0.625 ± 0.43 h. Besides, the Cmax in series [2] (5 mg/kg) is 3250 ± 310 ng/mL. The “time to recover to normal activity” value in series [3] (AM-1 IV 87 μmol/kg) was not above 2 min. The “dose tolerated by rats” value in series [3] was determined as 87 µmol/kg. The “Rate of AMP formation, Ave ± sd” value in series [4] is reported as 0.0455 ± 0.0102 umols/h/UBAEE. Besides, in series [5], the half-life at 0.761 mM is 39.9 ± 0.5 h and the half-life was 54 ± 4.6 h.
For `C[C@@H](Cc1ccccc1)NC(=O)[C@H](CCCNC(=N)N)NC(=O)CC(=O)O` [Compound AM-2, N-[4-guanidino-1-((R)-1-methyl-2-phenyl-ethylcarbamoyl)-butyl]-malonic acid], in series [1] (27 mg/kg), the maximum concentration (Cmax) came out at 811 ± 850 ng/mL and the time of peak concentration (Tmax) amounted to 0.625 ± 0.25 h. In addition, the Cmax in series [2] (6 mg/kg) stood at 2600 ± 260 ng/mL. Moreover, the “time to recover to normal activity” value in series [3] (AM-2 IV 155 μmol/kg) is not above 30 min. In addition, in series [3], the “dose tolerated by rats” value is 155 µmol/kg. In addition, the “Rate of AMP formation, Ave ± sd” value in series [4] is given as 0.0310 ± 0.0004 umols/h/UBAEE. In series [5], the half-life at 0.761 mM is 59.9 ± 17.1 h and the half-life was 68.5 ± 16.4 h.
With `C[C@@H](Cc1ccccc1)NC(=O)[C@@H](N)CCCCN` [Compound AM-3, lisdexamphetamine, reference compound], in series [1] (22 mg/kg), the Cmax came out at 357 ng/mL and the Tmax was 0.625 ± 0.25 h. In series [2] (4.5 mg/kg), the Cmax is 1670 ± 580 ng/mL. In series [3] (AM-3 IV 48 μmol/kg), the “time to recover to normal activity” value was not above 120 min. In addition, the “death of the rats” value in series [3] (AM-3 IV 95 μmol/kg) is on record as 50%. Further, the time to death entry in series [3] (AM-3 IV 95 μmol/kg and 190 μmol/kg) is “less than 1 min”. Further, the “death of the rats” value in series [3] (AM-3 IV 190 μmol/kg) came to 100%. In series [3] (AM-3 IV 64 mg/kg (190 μmol/kg), 1 rat), the Clinical observations result is given as “Died 10 sec post dose”. The “dose tolerated by rats” value in series [3] stood at 48 µmol/kg. In series [4], the “Rate of AMP formation, Ave ± sd” value is on record as “not detectable”. In series [5], the half-life at 0.761 mM is 112 ± 14 h and the half-life was 393 ± 431 h.
As to `CC(=O)N[C@@H](CCCCN)C(=O)N[C@@H](C)Cc1ccccc1` [Compound AM-5, Amphetamine-lysine-acetate], the Cmax in series [2] (4.5 mg/kg) was determined as 2150 ± 1700 ng/mL.
For the compound “Amphetamine-arginine-N-methyl [Compound AM-4]”, in series [1] (setting [6]), the “AMP Cmax ± sd” value worked out at 1.92 ± 0.20 ng/mL and the “AMP Tmax ± sd” value stood at 1.00 ± 0.0 h. Besides, the “AMP Cmax ± sd” value in series [2] (rat plasma, AM-4 IV 4.5 mg/kg (12 μmol/kg)) is 17.9 ± 3.5 ng/mL.
